Test results from US8710043B2, “TRPM8 antagonists and their use in treatments” (Amgen Inc., priority 2011, dated 2014).

target: T1, human TRPM8 (Homo sapiens, UniProt Q7Z2W7); assay: Luminescence readout assay for measuring intracellular calcium, icilin activation; type: cell-based; settings: CHO cells expressing human TRPM8, aequorin luminescence, 1 μM icilin activation; read-out: hTRPM8 IC50
T1 construct: expressed in transfected cells; host or cells: Chinese hamster ovary (CHO) cells, T-REx tetracycline-inducible system, co-transfected with aequorin
Outline: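 The read-out was luminescence reporting intracellular calcium, recorded by a CCD-based luminometer. Compounds were preincubated for 2.5 min before agonist challenge with 1 μM icilin. Human TRPM8 was expressed in a stable T-REx CHO line, induced with 0.5 μg/mL tetracycline the day before.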

T1 sequence (Q7Z2W7 whole entry): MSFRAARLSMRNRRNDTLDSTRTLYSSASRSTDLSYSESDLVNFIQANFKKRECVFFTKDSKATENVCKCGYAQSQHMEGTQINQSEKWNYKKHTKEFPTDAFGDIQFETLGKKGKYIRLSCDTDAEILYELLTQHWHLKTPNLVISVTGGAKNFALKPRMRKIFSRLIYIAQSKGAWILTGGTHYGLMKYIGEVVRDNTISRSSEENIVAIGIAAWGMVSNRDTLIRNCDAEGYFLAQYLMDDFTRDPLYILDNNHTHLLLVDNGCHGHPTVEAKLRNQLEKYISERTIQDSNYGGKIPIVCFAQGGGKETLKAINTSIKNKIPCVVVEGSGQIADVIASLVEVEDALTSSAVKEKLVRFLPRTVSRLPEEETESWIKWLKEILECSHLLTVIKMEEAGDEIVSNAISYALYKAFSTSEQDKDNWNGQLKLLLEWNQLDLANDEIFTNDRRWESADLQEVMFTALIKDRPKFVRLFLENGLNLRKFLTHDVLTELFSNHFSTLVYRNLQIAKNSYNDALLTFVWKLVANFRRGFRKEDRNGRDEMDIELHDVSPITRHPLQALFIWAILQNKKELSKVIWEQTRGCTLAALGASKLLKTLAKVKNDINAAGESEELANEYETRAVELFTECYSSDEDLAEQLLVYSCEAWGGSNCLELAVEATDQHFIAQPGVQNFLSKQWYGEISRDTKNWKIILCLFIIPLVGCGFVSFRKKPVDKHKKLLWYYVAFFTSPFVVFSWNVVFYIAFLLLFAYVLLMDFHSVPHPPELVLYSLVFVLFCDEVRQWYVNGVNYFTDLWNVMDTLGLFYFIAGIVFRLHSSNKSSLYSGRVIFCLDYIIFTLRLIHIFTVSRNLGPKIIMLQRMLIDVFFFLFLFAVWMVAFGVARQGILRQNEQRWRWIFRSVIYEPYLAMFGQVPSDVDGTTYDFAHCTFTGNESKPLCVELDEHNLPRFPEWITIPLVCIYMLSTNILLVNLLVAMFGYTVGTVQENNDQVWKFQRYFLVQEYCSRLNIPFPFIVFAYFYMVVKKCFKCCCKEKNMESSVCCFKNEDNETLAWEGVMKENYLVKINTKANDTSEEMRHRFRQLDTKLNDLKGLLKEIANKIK

Compared with `O=C(N[C@@H](c1ccc(Cl)c(F)c1)c1ncccc1F)c1ccc(=O)[nH]c1` [Example 344, (S)-N-((4-chloro-3-fluorophenyl)(3-fluoropyridin-2-yl)methyl)-6-oxo-1,6-dihydropyridine-3-carboxamide], `Cn1cc(C(=O)N[C@@H](c2ccc(Cl)c(F)c2)c2ncccc2F)ccc1=O` [Example 345, (S)-N-((4-chloro-3-fluorophenyl)(3-fluoropyridin-2-yl)methyl)-1-methyl-6-oxo-1,6-dihydropyridine-3-carboxamide] is 2.3-fold higher in IC50: 0.0451 µM for the first, 0.102 µM for the second. The first is the more potent here.

First: O=C(N[C@@H](c1ccc(OC(F)(F)F)c(F)c1)c1ccc(F)cn1)c1ccc(=O)[nH]c1 [Example 292, (S)-N-((3-fluoro-4-(trifluoromethoxy)phenyl)(5-fluoropyridin-2-yl)methyl)-6-oxo-1,6-dihydropyridine-3-carboxamide]
Second: O=C(N[C@@H](c1ccc(C(F)(F)F)cc1)c1nc(F)ccc1F)c1ccc(=O)[nH]c1 [Example 291, (S)-N-((3,6-difluoropyridin-2-yl)(4-(trifluoromethyl)phenyl)methyl)-6-oxo-1,6-dihydropyridine-3-carboxamide]
The IC50 of the first is 6.3-fold lower: 0.0524 µM for the first, 0.332 µM for the second.

`CS(=O)(=O)c1cccc(C(=O)N[C@@H](c2ccc(C(F)(F)F)cc2)c2ncccc2F)c1` [Example 216, (S)-N-((3-fluoropyridin-2-yl)(4-(trifluoromethyl)phenyl)methyl)-3-(methylsulfonyl)benzamide] and `O=C(O)c1cccc(C(=O)N[C@@H](c2ccc(C(F)(F)F)cc2)c2ncccc2F)c1` [Example 207, (S)-3-(((3-fluoropyridin-2-yl)(4-(trifluoromethyl)phenyl)methyl)carbamoyl)benzoic acid] are within 1.5-fold of each other in IC50: 0.143 µM for the first, 0.121 µM for the second.

First: O=C(N[C@@H](c1ccc(OC(F)(F)F)c(F)c1)c1ncccc1F)c1ccc(=O)n(C2COC2)c1 [Example 304, (S)-N-((3-fluoro-4-(trifluoromethoxy)phenyl)(3-fluoropyridin-2-yl)methyl)-1-(oxetan-3-yl)-6-oxo-1,6-dihydropyridine-3-carboxamide]
Second: CC(=O)Nc1ccc(C(=O)N[C@@H](c2ccc(OC(F)(F)F)c(F)c2)c2ncccc2F)cc1O [Example 390, (S)-4-acetamido-N-((3-fluoro-4-(trifluoromethoxy)phenyl)(3-fluoropyridin-2-yl)methyl)-3-hydroxybenzamide]
The IC50 of the first is 9.4-fold lower: 0.0144 µM for the first, 0.136 µM for the second. The first is the more potent here.

Going from `O=C(N[C@@H](c1ccc(C(F)(F)F)cc1)c1ncsc1Br)c1ccc2ncccc2c1` [Example 259, (S)-N-((5-bromothiazol-4-yl)(4-(trifluoromethyl)phenyl)methyl)quinoline-6-carboxamide 2,2,2-trifluoroacetate] to `O=C(N[C@@H](c1ccc(C(F)(F)F)cc1)c1ncccc1Br)c1ccc2cccnc2c1` [Example 195, (S)—N-((3-bromopyridin-2-yl)(4-(trifluoromethyl)-phenyl)methyl)quinoline-7-carboxamide], the IC50 falls from 0.128 µM to 0.0506 µM (2.5-fold). The second is the more potent here.

Going from `O=C(N[C@@H](c1ccc(C(F)(F)F)cc1)c1ncccc1Cl)c1ccc(=O)[nH]c1` [Example 248, (S)-N-((3-chloropyridin-2-yl)(4-(trifluoromethyl)phenyl)methyl)-6-oxo-1,6-dihydropyridine-3-carboxamide 2,2,2-trifluoroacetate] to `O=C(N[C@@H](c1ccc(C(F)(F)F)cc1)c1ccccn1)c1ccc(=O)[nH]c1` [Example 201, (S)-6-oxo-N-(pyridin-2-yl(4-(trifluoromethyl)phenyl)methyl)-1,6-dihydropyridine-3-carboxamide 2,2,2-trifluoroacetate], the IC50 rises from 0.0119 µM to 0.0293 µM (2.5-fold).

Compared with `CNS(=O)(=O)c1ccc(C(=O)N[C@@H](c2ccc(C(F)(F)F)cc2)c2ncccc2F)cc1` [Example 74, (S)-N-((3-fluoropyridin-2-yl)(4-(trifluoromethyl)phenyl)methyl)-4-(N-methylsulfamoyl)benzamide], `N#Cc1ccc(C(=O)N[C@@H](c2ccc(C(F)(F)F)cc2)c2ncccc2F)cc1` (stereo in doubt) [Example 200, 4-cyano-N-((3-fluoropyridin-2-yl)(4-(trifluoromethyl)phenyl)methyl)benzamide] is 1.7-fold lower in IC50: 0.0853 µM for the first, 0.0493 µM for the second.

Compared with `O=C(N[C@@H](c1ccc(Cl)c(Cl)c1)c1ncccc1C(F)(F)F)c1ccc(=O)[nH]c1` [Example 3, (S)-N-((3,4-dichlorophenyl)(3-(trifluoromethyl)pyridin-2-yl)methyl)-6-hydroxynicotinamide], `O=C(N[C@@H](c1ccc(I)cc1)c1ncccc1C(F)(F)F)c1ccc(=O)[nH]c1` (stereo in doubt) [Example 376, N-((4-iodophenyl)(3-(trifluoromethyl)pyridin-2-yl)methyl)-6-oxo-1,6-dihydropyridine-3-carboxamide] is 3-fold higher in IC50: 0.0177 µM for the first, 0.053 µM for the second.

First: O=C(O)COc1ccc(C(=O)N[C@@H](c2ccc(C(F)(F)F)cc2)c2ncccc2F)nc1 [Example 279, (S)-2-((6-(((3-Fluoropyridin-2-yl)(4-(trifluoromethyl)phenyl)-methyl)carbamoyl)pyridin-3-yl)oxy)acetic Acid]
Second: COc1ccc(C(=O)N[C@@H](c2ccc(C(F)(F)F)cc2)c2ncccc2F)cn1 [Example 46, (S)-N-((3-fluoropyridin-2-yl)(4-(trifluoromethyl)phenyl)methyl)-6-methoxynicotinamide]
The IC50 of the first is 150-fold higher: 1.81 µM for the first, 0.0123 µM for the second. The second is the more potent here.

Going from `O=C(N[C@@H](c1ccc(C(F)(F)F)c(F)c1)c1ncccc1C(F)(F)F)c1ccc2cccnc2n1` [Example 129, (S)-N-((3-fluoro-4-(trifluoromethyl)phenyl)(3-(trifluoromethyl)pyridin-2-yl)methyl)-1,8-naphthyridine-2-carboxamide 2,2,2-trifluoroacetate] to `O=C(N[C@@H](c1ccc(C(F)(F)F)cc1)c1ncccc1C(F)(F)F)c1ccc2nccc(Cl)c2c1` [Example 116, (S)-4-chloro-N-((4-(trifluoromethyl)phenyl)(3-(trifluoromethyl)pyridin-2-yl)methyl)quinoline-6-carboxamide 2,2,2-trifluoroacetate], the IC50 falls from 0.114 µM to 0.0429 µM (2.7-fold).

First: N#Cc1cc(C(=O)N[C@@H](c2ccc(C(F)(F)F)cc2)c2ncccc2F)c[nH]c1=O [Example 277, (S)-5-Cyano-N-((3-fluoropyridin-2-yl)(4-(trifluoromethyl)-phenyl)methyl)-6-oxo-1,6-dihydropyridine-3-carboxamide]
Second: CC(C)n1cc(C(=O)N[C@@H](c2ccc(C(F)(F)F)cc2)c2ncccc2F)ccc1=O [Example 367, (S)-N-((3-fluoropyridin-2-yl)(4-(trifluoromethyl)phenyl)methyl)-1-isopropyl-6-oxo-1,6-dihydropyridine-3-carboxamide]
The IC50 of the first is 2.8-fold higher: 0.188 µM for the first, 0.0683 µM for the second.

First: O=C(N[C@@H](c1ccc(C(F)(F)F)cc1)c1ncccc1C(F)(F)F)c1cccc(=O)[nH]1 [Example 63, (S)-6-oxo-N-((4-(trifluoromethyl)phenyl)(3-(trifluoromethyl)pyridin-2-yl)methyl)-1,6-dihydropyridine-2-carboxamide]
Second: O=C(N[C@@H](c1ccc(C(F)(F)F)cc1)c1ncccc1C(F)(F)F)c1ccc2c(c1)CNC2=O [Example 271, (S)-1-Oxo-N-((4-(trifluoromethyl)phenyl)(3-(trifluoromethyl)-pyridin-2-yl)methyl)isoindoline-5-carboxamide]
The IC50 of the first is 15-fold higher: 0.134 µM for the first, 0.0089 µM for the second.

Compared with `CC(C)(C(=O)O)C(=O)N[C@@H](c1ccc(C(F)(F)F)cc1)c1ncccc1C(F)(F)F` [Example 243, (S)-2,2-dimethyl-3-oxo-3-(((4-(trifluoromethyl)phenyl)(3-(trifluoromethyl)pyridin-2-yl)methyl)amino)propanoic acid], `CC(=O)NC(C)C(=O)N[C@@H](c1ccc(C(F)(F)F)cc1)c1ncccc1C(F)(F)F` (stereo partly drawn) [Example 162, 2-acetamido-N-((S)-(4-(trifluoromethyl)phenyl)(3-(trifluoromethriyl)pyridin-2-yl)methyl)propanamide] is 3-fold higher in IC50: 1.44 µM for the first, 4.38 µM for the second. The first is the more potent here.

Going from `Cc1cccnc1[C@@H](NC(=O)c1ccc2nccn2c1)c1ccc(C(F)(F)F)cc1` [Example 314, (S)-N-((3-methylpyridin-2-yl)(4-(trifluoromethyl)phenyl)methyl)imidazo[1,2-a]pyridine-6-carboxamide] to `O=C(N[C@@H](c1ccc(C(F)(F)F)cc1)c1ncccc1C(F)(F)F)c1ccc2nccn2c1` [Example 254, (S)-N-((4-(trifluoromethyl)phenyl)(3-(trifluoromethyl)pyridin-2-yl)methyl)imidazo[1,2-a]pyridine-6-carboxamide 2,2,2-trifluoroacetate], the IC50 falls from 0.0218 µM to 0.0118 µM (1.8-fold).

First: O=C(O)c1ccc(C(=O)N[C@@H](c2ccc(C(F)(F)F)cc2)c2ncccc2C(F)(F)F)cc1 [Example 283, (S)-4-(((4-(Trifluoromethyl)phenyl)(3-(trifluoromethyl)-pyridin-2-yl)methyl)carbamoyl)benzoic Acid]
Second: O=C(N[C@@H](c1ccc(F)cc1)c1ncccc1C(F)(F)F)c1ccccc1 [Example 126, (S)-N-((4-fluorophenyl)(3-(trifluoromethyl)pyridin-2-yl)methyl)benzamide]
The IC50 of the first is 8.9-fold lower: 0.0218 µM for the first, 0.194 µM for the second.

First: O=C(N[C@@H](C#Cc1ccccc1)c1ncccc1C(F)(F)F)c1ccc2cccnc2c1 [Example 261, (S)-N-(3-phenyl-1-(3-(trifluoromethyl)pyridin-2-yl)prop-2-yn-1-yl)quinoline-7-carboxamide]
Second: O=C(N[C@@H](c1ccc(OC(F)(F)F)c(F)c1)c1ncccc1F)c1ccc(O)cn1 [Example 389, (S)-N-((3-fluoro-4-(trifluoromethoxy)phenyl)(3-fluoropyridin-2-yl)methyl)-5-hydroxypicolinamide 2,2,2-trifluoroacetate]
The IC50 of the first is 20-fold higher: 0.375 µM for the first, 0.0183 µM for the second.

Molecule `CC(C)(C)OC(=O)N1CCCC(C(=O)N[C@@H](c2ccc(C(F)(F)F)cc2)c2ncccc2C(F)(F)F)C1` (stereo partly drawn) [Example 142, tert-butyl 3-(((S)-(4-(trifluoromethyl)phenyl)(3-(trifluoromethyl)pyridin-2-yl)methyl)carbamoyl)piperidine-1-carboxylate] has an IC50 of 0.144 µM.
